Results published in patent US20150191445A1, “ACYL-HYDRAZONE AND OXADIAZOLE COMPOUNDS, PHARMACEUTICAL COMPOSITIONS CONTAINING THE SAME AND USES THEREOF” (Universidade Federal de Santa Catarina, priority 2011, published 2015).

Tested on: Jurkat cells
Experiment: Quantification of apoptosis with Annexin V/PI labeling
Type: cell-based, human
Settings: 125 nM, 18 h
Description: The cells were incubated for 12 hours in fresh medium before experiments. Two million cells from the Jurkat line were incubated for 12 h, 18 h, 24 h and 30 h in RPMI-640 medium supplemented with 10% Fetal Bovine Serum (FCS) and 0.2% Penicillin/Streptomycin (PS) with a concentration of 125 nM of compound 07 or DMSO (vehicle).
The cells treated or not with compound 07 were rinsed in PBS and labeled with Annexin V Apoptosis Assay kit (Invitrogen). Briefly, cells were resuspended in appropriate buffer containing calcium and incubated for 15 min with Annexin V-FITC and propidium iodide 5 μg/mL. 10,000 events were collected on FACSCalibur flow cytometer, excluding any debris by forward vs standard, side scatter, with quantification of green and red fluorescence.

COc1cc(C(=O)NN=Cc2cccc3ccccc23)cc(OC)c1OC [Compound 07]
induction of apoptosis: strong inducer of apoptosis
